Experimental data as given in ChEMBL document CHEMBL1201862, “PubChem BioAssay data set” (2004).
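Values below derive from 48-hour exposures of cells grown in 96-well plates, with endpoints linearly interpolated between the two concentrations bracketing the appropriate inhibition level. The concentration for 50% growth inhibition is given as GI50.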 Activity calls are given as the source filed them. No stated cut-off is given here; in the data, active = GI50 up to about 1.1 µM and inactive = higher.

Columns and labels:
Assay in all cases: NCI anticancer screen, dose series, 48 h
SF-295 = test system: SF-295
SK-OV-3 = test system: SK-OV-3
UO-31 = test system: UO-31
MDA-MB-435 = test system: MDA-MB-435
NCI-H522 = test system: NCI-H522
A549 = test system: A549
MDA-N = test system: MDA-N
DU-145 = test system: DU-145
ACHN = test system: ACHN
HT-29 = test system: HT-29
OVCAR-5 = test system: OVCAR-5
M14 = test system: M14
HOP-92 = test system: HOP-92
NCI-H226 = test system: NCI-H226
TK-10 = test system: TK-10
A498 = test system: A498
PC-3 = test system: PC-3
HCT-116 = test system: HCT-116
SF-539 = test system: SF-539
SK-MEL-2 = test system: SK-MEL-2

## O=C(c1ccc(Cl)c(Cl)c1)N(Cc1cccnc1)C(=S)N(Cc1cccnc1)C(=O)c1ccc(Cl)c(Cl)c1
SF-295
  GI50: 24.4 µM (inactive)
SK-OV-3
  GI50: > 100 µM (inactive)
UO-31
  GI50: 17.9 µM (inactive)
MDA-MB-435
  GI50: 62.5 µM (inactive)
NCI-H522
  GI50: 20.9 µM (inactive)
A549
  GI50: > 100 µM (inactive)
MDA-N
  GI50: 23.9 µM (inactive)
DU-145
  GI50: 33.2 µM (inactive)
ACHN
  GI50: 18.8 µM (inactive)
HT-29
  GI50: 24 µM (inactive)
OVCAR-5
  GI50: 29.2 µM (inactive)
M14
  GI50: 21.2 µM (inactive)
HOP-92
  GI50: 36.1 µM (inactive)
NCI-H226
  GI50: 31.8 µM (inactive)
TK-10
  GI50: 29.9 µM (inactive)
A498
  GI50: 33.9 µM (inactive)
PC-3
  GI50: 22.1 µM (inactive)
HCT-116
  GI50: 25.2 µM (inactive)
SF-539
  GI50: 22.1 µM (inactive)
SK-MEL-2
  GI50: 25.1 µM (inactive)

## Cc1ccc(S(=O)(=O)OCCC2CN(C(=O)OCc3ccccc3)C(C)(C)O2)cc1 (configuration not stated)
SF-295
  GI50: 13.5 µM (inactive)
SK-OV-3
  GI50: > 100 µM (inactive)
UO-31
  GI50: 3.69 µM (inactive)
MDA-MB-435
  GI50: 3.61 µM (inactive)
NCI-H522
  GI50: 2.7 µM (inactive)
A549
  GI50: 9.59 µM (inactive)
MDA-N
  GI50: 12.5 µM (inactive)
DU-145
  GI50: 57.8 µM (inactive)
ACHN
  GI50: 12.9 µM (inactive)
OVCAR-5
  GI50: > 100 µM (inactive)
M14
  GI50: 7.38 µM (inactive)
HOP-92
  GI50: 62.2 µM (inactive)
NCI-H226
  GI50: 0.106 µM (active)
TK-10
  GI50: 8.75 µM (inactive)
A498
  GI50: > 100 µM (inactive)
PC-3
  GI50: 4.79 µM (inactive)
HCT-116
  GI50: 7.23 µM (inactive)
SF-539
  GI50: 12.5 µM (inactive)
SK-MEL-2
  GI50: 17.7 µM (inactive)

## OC(CC1CCCCN1)c1ccc2c(c1)oc1ccccc12 (configuration not stated)
SF-295
  GI50: 99.1 µM (inactive)
SK-OV-3
  GI50: > 100 µM (inactive)
UO-31
  GI50: 37.2 µM (inactive)
MDA-MB-435
  GI50: 42.7 µM (inactive)
NCI-H522
  GI50: 79.8 µM (inactive)
A549
  GI50: > 100 µM (inactive)
MDA-N
  GI50: 40.8 µM (inactive)
DU-145
  GI50: > 100 µM (inactive)
ACHN
  GI50: > 100 µM (inactive)
HT-29
  GI50: 28.2 µM (inactive)
OVCAR-5
  GI50: 50.1 µM (inactive)
M14
  GI50: 18.8 µM (inactive)
HOP-92
  GI50: 48.3 µM (inactive)
NCI-H226
  GI50: 74.5 µM (inactive)
TK-10
  GI50: 72.1 µM (inactive)
A498
  GI50: 23.4 µM (inactive)
PC-3
  GI50: 71 µM (inactive)
HCT-116
  GI50: 85.3 µM (inactive)
SF-539
  GI50: 46.1 µM (inactive)
SK-MEL-2
  GI50: 34 µM (inactive)

## OC(CCN1CCN(CCOC(c2ccc(F)cc2)c2ccc(F)cc2)CC1)c1ccc(Br)cc1 (configuration not stated)
SF-295
  GI50: 4.62 µM (inactive)
SK-OV-3
  GI50: 7.35 µM (inactive)
UO-31
  GI50: 2.22 µM (inactive)
MDA-MB-435
  GI50: 2.27 µM (inactive)
NCI-H522
  GI50: 5.74 µM (inactive)
A549
  GI50: 9.44 µM (inactive)
MDA-N
  GI50: 2.61 µM (inactive)
DU-145
  GI50: 6.21 µM (inactive)
ACHN
  GI50: 4.76 µM (inactive)
HT-29
  GI50: 3.32 µM (inactive)
OVCAR-5
  GI50: 15.5 µM (inactive)
M14
  GI50: 1.96 µM (inactive)
HOP-92
  GI50: 4.37 µM (inactive)
NCI-H226
  GI50: 5.7 µM (inactive)
TK-10
  GI50: 6.76 µM (inactive)
A498
  GI50: 2.12 µM (inactive)
PC-3
  GI50: 4.83 µM (inactive)
HCT-116
  GI50: 2.8 µM (inactive)
SF-539
  GI50: 2.3 µM (inactive)
SK-MEL-2
  GI50: 5.36 µM (inactive)

## CCn1sc2ccccc2c1=O
SF-295
  GI50: 29.1 µM (inactive)
SK-OV-3
  GI50: 36 µM (inactive)
MDA-MB-435
  GI50: 1.99 µM (inactive)
NCI-H522
  GI50: 1.6 µM (inactive)
A549
  GI50: 16.1 µM (inactive)
MDA-N
  GI50: 4.05 µM (inactive)
DU-145
  GI50: 20.4 µM (inactive)
ACHN
  GI50: 7.62 µM (inactive)
HT-29
  GI50: 14.4 µM (inactive)
OVCAR-5
  GI50: 9.1 µM (inactive)
M14
  GI50: 4.97 µM (inactive)
HOP-92
  GI50: 10.1 µM (inactive)
NCI-H226
  GI50: 24.1 µM (inactive)
TK-10
  GI50: 16.5 µM (inactive)
A498
  GI50: 37.8 µM (inactive)
PC-3
  GI50: 14.3 µM (inactive)
HCT-116
  GI50: 14.8 µM (inactive)
SF-539
  GI50: 13.5 µM (inactive)
SK-MEL-2
  GI50: 21.7 µM (inactive)

## Cc1ccc(C)c(COCCOCn2cc(Br)c(N)nc2=O)c1
SF-295
  GI50: > 100 µM (inactive)
SK-OV-3
  GI50: > 100 µM (inactive)
UO-31
  GI50: > 100 µM (inactive)
MDA-MB-435
  GI50: > 100 µM (inactive)
NCI-H522
  GI50: > 100 µM (inactive)
A549
  GI50: > 100 µM (inactive)
MDA-N
  GI50: > 100 µM (inactive)
DU-145
  GI50: > 100 µM (inactive)
ACHN
  GI50: > 100 µM (inactive)
OVCAR-5
  GI50: > 100 µM (inactive)
M14
  GI50: > 100 µM (inactive)
HOP-92
  GI50: > 100 µM (inactive)
NCI-H226
  GI50: > 100 µM (inactive)
TK-10
  GI50: > 100 µM (inactive)
A498
  GI50: > 100 µM (inactive)
PC-3
  GI50: > 100 µM (inactive)
HCT-116
  GI50: > 100 µM (inactive)
SF-539
  GI50: > 100 µM (inactive)
SK-MEL-2
  GI50: > 100 µM (inactive)

## C=C(C)CCC(O)[C@](C)(O)[C@H]1[C@H](O)C[C@@]2(C)[C@@H]3CCc4c(cc(OC5OC(CO)C(O)C(O)C5O)c(O)c4C)C3(C)C(=O)C[C@]12C (some centres not stated)
SF-295
  GI50: > 100 µM (inactive)
SK-OV-3
  GI50: > 100 µM (inactive)
UO-31
  GI50: > 100 µM (inactive)
MDA-MB-435
  GI50: > 100 µM (inactive)
NCI-H522
  GI50: > 100 µM (inactive)
A549
  GI50: > 100 µM (inactive)
MDA-N
  GI50: > 100 µM (inactive)
DU-145
  GI50: > 100 µM (inactive)
ACHN
  GI50: > 100 µM (inactive)
HT-29
  GI50: > 100 µM (inactive)
OVCAR-5
  GI50: > 100 µM (inactive)
M14
  GI50: > 100 µM (inactive)
HOP-92
  GI50: > 100 µM (inactive)
NCI-H226
  GI50: > 100 µM (inactive)
TK-10
  GI50: > 100 µM (inactive)
A498
  GI50: > 100 µM (inactive)
PC-3
  GI50: > 100 µM (inactive)
HCT-116
  GI50: > 100 µM (inactive)
SF-539
  GI50: > 100 µM (inactive)
SK-MEL-2
  GI50: > 100 µM (inactive)
